Results taken from patent US9169254B2, “Spiroimidazolone derivative” (Chugai Seiyaku Kabushiki Kaisha, priority 2009, dated 2015).

Biological target: T1, human PTH1 receptor (Homo sapiens, UniProt Q03431)
T1 sequence (Q03431 27-593): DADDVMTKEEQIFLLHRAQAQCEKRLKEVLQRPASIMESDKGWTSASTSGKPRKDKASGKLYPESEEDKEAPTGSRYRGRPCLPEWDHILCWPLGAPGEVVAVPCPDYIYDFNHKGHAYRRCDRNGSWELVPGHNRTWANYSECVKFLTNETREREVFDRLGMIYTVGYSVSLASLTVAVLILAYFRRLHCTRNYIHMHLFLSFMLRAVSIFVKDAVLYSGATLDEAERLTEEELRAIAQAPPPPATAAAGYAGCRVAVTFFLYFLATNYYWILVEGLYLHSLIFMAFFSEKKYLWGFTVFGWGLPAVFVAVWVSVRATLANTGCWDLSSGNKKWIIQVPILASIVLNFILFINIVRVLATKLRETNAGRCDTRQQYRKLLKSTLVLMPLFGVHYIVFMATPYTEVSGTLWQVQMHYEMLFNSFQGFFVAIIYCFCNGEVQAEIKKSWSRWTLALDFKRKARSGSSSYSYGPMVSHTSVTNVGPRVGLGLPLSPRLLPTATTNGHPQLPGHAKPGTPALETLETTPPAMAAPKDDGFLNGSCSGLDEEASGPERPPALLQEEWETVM
Assay: In vitro cAMP signal activity in HKRK-B7 cells (LLC-PK1 cells overexpressing the human PTH1 receptor)
Format: cell-based
Settings: HKRK-B7 cells; compound at 1×10^−3 M; cAMP produced as percentage of that produced by hPTH(1-34) at 100 nM

Point of comparison: `Cc1cc(N(C)C(N)=O)cc(C)c1CCS(=O)(=O)N1CCC2(CC1)N=C(C1CCC(CC=C(F)F)CC1)NC2=O` (stereo not shown) [Compound 940, 1-[4-(2-{2-[4-(3,3-difluoro-allyl)-cyclohexyl]-4-oxo-1,3,8-triaza-spiro[4.5]dec-1-ene-8-sulfonyl}-ethyl)-3,5-dimethyl-phenyl]-1-methyl-urea], “cAMP production activity (%)” value 86%. Against it:
- Cc1cc(N(C)C(N)=O)c(Cl)c(C)c1CCS(=O)(=O)N1CCC2(CC1)N=C(C1CCC(CC(F)(F)F)CC1)NC2=O (stereo not shown) [Compound 937, 1-[2-chloro-3,5-dimethyl-4-(2-{4-oxo-2-[4-(2,2,2-trifluoro-ethyl)-cyclohexyl]-1,3,8-triaza-spiro[4.5]dec-1-ene-8-sulfonyl}-ethyl)-phenyl]-1-methyl-urea] — higher, 120%
- Cc1cc(N(C)C(N)=O)cc(C)c1CCS(=O)(=O)N1CCC2(CC1)N=C(C1CCC(C)(C)CC1)NC2=O [Compound 938, 1-(4-{2-[2-(4,4-dimethyl-cyclohexyl)-4-oxo-1,3,8-triaza-spiro[4.5]dec-1-ene-8-sulfonyl]-ethyl}-3,5-dimethyl-phenyl)-1-methyl-urea] — higher, 97%
- Cc1cc(N(C)C(N)=O)cc(C)c1CCS(=O)(=O)N1CCC2(CC1)N=C(C1CCC(=CCC(F)(F)F)CC1)NC2=O (stereo not shown) [Compound 939, 1-[3,5-Dimethyl-4-(2-{4-oxo-2-[4-(3,3,3-trifluoro-propylidene)-cyclohexyl]-1,3,8-triaza-spiro[4.5]dec-1-ene-8-sulfonyl}-ethyl)-phenyl]-1-methyl-urea] — higher, 111%
- Cc1cc(N(C)C(N)=O)cc(C)c1CCS(=O)(=O)N1CC2(C1)N=C(c1cccc(OC(F)(F)F)c1)NC2=O [Compound 941, 1-(3,5-dimethyl-4-{2-[8-oxo-6-(3-trifluoromethoxy-phenyl)-2,5,7-triaza-spiro[3.4]oct-5-ene-2-sulfonyl]-ethyl}-phenyl)-1-methyl-urea] — lower, 21%
- CC(=O)N(C)c1ccc(/C(F)=C\S(=O)(=O)N2CCC3(CC2)N=C(C2CCC(C)CC2)NC3=O)c(C)c1 (stereo not shown) [Compound 942, N-(4-{(E)-1-Fluoro-2-[2-(4-methyl-cyclohexyl)-4-oxo-1,3,8-triaza-spiro[4.5]dec-1-ene-8-sulfonyl]-vinyl}-3-methyl-phenyl)-N-methyl-acetamide] — lower, 31%
- Cc1cc(N2C(=O)CNC2=O)ccc1CCS(=O)(=O)N1CCC2(CC1)N=C(C1CCC(CCC(F)(F)F)CC1)NC2=O (stereo not shown) [Compound 943, 3-[3-Methyl-4-(2-{4-oxo-2-[4-(3,3,3-trifluoro-propyl)-cyclohexyl]-1,3,8-triaza-spiro[4.5]dec-1-ene-8-sulfonyl}-ethyl)-phenyl]-imidazolidine-2,4-dione] — lower, 74%
- Cc1cc(N2C(=O)CNC2=O)ccc1CCS(=O)(=O)N1CCC2(CC1)N=C(C1CCC(CCCC(F)(F)F)CC1)NC2=O (stereo not shown) [Compound 944, 3-[3-methyl-4-(2-{4-oxo-2-[4-(4,4,4-trifluoro-butyl)-cyclohexyl]-1,3,8-triaza-spiro[4.5]dec-1-ene-8-sulfonyl}-ethyl)-phenyl]-imidazolidine-2,4-dione] — lower, 71%
- Cc1cc(N2C(=O)CNC2=O)ccc1CCS(=O)(=O)N1CCC2(CC1)N=C(C1CCC(/C=C/C(F)F)CC1)NC2=O (stereo not shown) [Compound 945, 3-[4-(2-{2-[4-((E)-3,3-difluoro-propenyl)-cyclohexyl]-4-oxo-1,3,8-triaza-spiro[4.5]dec-1-ene-8-sulfonyl}-ethyl)-3-methyl-phenyl]-imidazolidine-2,4-dione] — lower, 77%
- Cc1cc(N2C(=O)CNC2=O)ccc1CCS(=O)(=O)N1CCC2(CC1)N=C([C@H]1CC[C@H](CC=C(F)F)CC1)NC2=O [Compound 946, 3-[4-(2-{2-[4-(3,3-difluoro-allyl)-cyclohexyl]-4-oxo-1,3,8-triaza-spiro[4.5]dec-1-ene-8-sulfonyl}-ethyl)-3-methyl-phenyl]-imidazolidine-2,4-dione] — higher, 102%
- Cc1cc(N2C(=O)CNC2=O)ccc1CCS(=O)(=O)N1CCC2(CC1)N=C(C1CCC(C(F)(F)F)CC1)NC2=O (stereo not shown) [Compound 947, 3-(3-methyl-4-{2-[4-oxo-2-(4-trifluoromethyl-cyclohexyl)-1,3,8-triaza-spiro[4.5]dec-1-ene-8-sulfonyl]-ethyl}-phenyl)-imidazolidine-2,4-dione] — higher, 89%
- Cc1cc(N2C(=O)CNC2=O)ccc1CCS(=O)(=O)N1CCC2(CC1)N=C([C@H]1CC[C@H](CC(F)(F)F)CC1)NC2=O [Compound 948, 3-[3-Methyl-4-(2-{4-oxo-2-[4-(2,2,2-trifluoro-ethyl)-cyclohexyl]-1,3,8-triaza-spiro[4.5]dec-1-ene-8-sulfonyl}-ethyl)-phenyl]-imidazolidine-2,4-dione] — lower, 68%
- CCC[C@@H]1CCC[C@H](C2=NC3(CCN(S(=O)(=O)CCc4ccc(N5C(=O)CNC5=O)cc4C)CC3)C(=O)N2)C1 [Compound 949, 3-(3-methyl-4-{2-[4-oxo-2-((1S,3R)-3-propyl-cyclohexyl)-1,3,8-triaza-spiro[4.5]dec-1-ene-8-sulfonyl]-ethyl}-phenyl)-imidazolidine-2,4-dione] — higher, 92%
- Cc1cc(N2C(=O)CNC2=O)ccc1CCS(=O)(=O)N1CCC2(CC1)N=C([C@H]1CCC[C@@H](C)C1)NC2=O [Compound 950, 3-(3-methyl-4-{2-[2-((1S,3R)-3-methyl-cyclohexyl)-4-oxo-1,3,8-triaza-spiro[4.5]dec-1-ene-8-sulfonyl]-ethyl}-phenyl)-imidazolidine-2,4-dione] — lower, 59%
- Cc1cc(N2C(=O)CNC2=O)ccc1CCS(=O)(=O)N1CCC2(CC1)N=C(C1CCC(C)(C)CC1)NC2=O [Compound 951, 3-(4-{2-[2-(4,4-dimethyl-cyclohexyl)-4-oxo-1,3,8-triaza-spiro[4.5]dec-1-ene-8-sulfonyl]-ethyl}-3-methyl-phenyl)-imidazolidine-2,4-dione] — higher, 93%
- Cc1cc(N2C(=O)CNC2=O)ccc1CCS(=O)(=O)N1CCC2(CC1)N=C(C1CC(C)(C)CC(C)(C)C1)NC2=O [Compound 952, 3-(3-methyl-4-{2-[4-oxo-2-(3,3,5,5-tetramethyl-cyclohexyl)-1,3,8-triaza-spiro[4.5]dec-1-ene-8-sulfonyl]-ethyl}-phenyl)-imidazolidine-2,4-dione] — higher, 95%
- CCC1CCC(C2=NC3(CCN(S(=O)(=O)CCc4cc(Cl)c(NC(C)=O)cc4C)CC3)C(=O)N2)CC1 (stereo not shown) [Compound 953, N-(2-Chloro-4-{2-[2-(4-ethyl-cyclohexyl)-4-oxo-1,3,8-triaza-spiro[4.5]dec-1-ene-8-sulfonyl]-ethyl}-5-methyl-phenyl)-acetamide] — lower, 77%
- CCC1CCC(C2=NC3(CCN(S(=O)(=O)CCc4ccc(NC(C)=O)c(Cl)c4C)CC3)C(=O)N2)CC1 (stereo not shown) [Compound 954, N-(2-chloro-4-{2-[2-(4-ethyl-cyclohexyl)-4-oxo-1,3,8-triaza-spiro[4.5]dec-1-ene-8-sulfonyl]-ethyl}-3-methyl-phenyl)-acetamide] — lower, 81%
- CC(=O)Nc1ccc(CCS(=O)(=O)N2CCC3(CC2)N=C([C@H]2CC[C@H](CCC(F)F)CC2)NC3=O)c(C)c1 [Compound 955, N-[4-(2-{2-[4-(3,3-Difluoro-propyl)-cyclohexyl]-4-oxo-1,3,8-triaza-spiro[4.5]dec-1-ene-8-sulfonyl}-ethyl)-3-methyl-phenyl]-acetamide] — lower, 79%
